Results as given in patent publication EP0906100B1, “USE OF 5-HT 1A? RECEPTOR ANTAGONISTS FOR THE TREATMENT OF URINARY INCONTINENCE” (RECORDATI S.A., priority 1996, dated 1997).

What was measured:
[1] = test system: rhythmic bladder voiding contractions; experiment: Volume-induced rhythmic bladder voiding contractions in anaesthetized rats; format: in vivo; details: for AMPLITUDE mm Hg before treatment / FREQUENCY No. contr./15 min before treatment: baseline; for AMPLITUDE mm Hg before treatment / AMPLITUDE mm Hg after treatment: animals with frequency reduction <50%; for AMPLITUDE mm Hg before treatment / FREQUENCY No. contr./15 min before treatment / AMPLITUDE mm Hg after treatment / FREQUENCY No. contr./15 min after treatment: mean±S.E.; for BLADDER CONTRACTIONS Disappearance time: duration of bladder quiescence, mean (S.E. in next cell)
Experimental: Female Sprague Dawley rats weighing 225-275 g (Crl: CD° BR, Charles River Italia) were used. The animals were housed with free access to food and water and were maintained on a forced 12 h alternating light-dark cycle at 22-24°C for at least one week, except during the experiment. The activity on the rhythmic bladder voiding contractions was evaluated according to the method of Dray (J. Pharmcol. Methods, 13:157, 1985), with some modifications as in Guarneri (Phannacol. Res., 27:173, 1993). […] The catheter was tied in place with a ligature around the external urethral orifice and was connected with conventional pressure transducers (Statham P23 ID/P23 XL). […] The bladder was then filled via the recording catheter by incremental volumes of warm (37°C) saline until reflex bladder voiding contractions occurred (usually 0.8-1.5 ml). Two parameters were recorded from the cystometrogram: the frequency of voiding contractions, calculated by counting the number of peaks/15 min of observation, and the mean amplitude of these contractions (mean height of the peaks in mmHg) in the same time period. For intravenous (i. v. ) injection of bioactive compounds, a PE 50 polyethylene tubing filled with physiological saline was inserted into the jugular vein.
Bioactivity was assessed in individual animals (using 6-10 rats per dose), by recording the number and height of the peaks for 15 min after drug injection and comparing them with those previously recorded for 15 min after the intravenous administration of vehicle alone. […] The statistical significance of changes in frequency and amplitude before and after treatment was assessed by Student's t test for paired data. Changes showing a probability P<0.01 were considered significant.
An all-or-none criterion was also used to compare bioactivity in terms of ED50 values. Rats showing a treatment-related change of ≥30% relative to the basal value were considered to be positive. Quantal dose-response curves and ED50 values were evaluated by the method of Bliss (J. Pharm. Pharmacol., 11:192, 1938).
The rapid distension of the urinary bladder in urethane-anaesthetized rats produced a series of rhythmic bladder voiding contractions whose characteristics have been described (Maggie et al., Brain Res., 380, 83, 1986; Maggi, et al., J. Pharmacol. Exp. Ther., 230, 500, 1984). The frequency of these contractions is related to the sensory afferent arm of reflex micturition and to the integrity of the micturition centre, while their amplitude is a property of the efferent arm of the reflex (Maggi et al., J. Pharmacol. Meth., 15, 157, 1986; Maggi et al., Brain Res.. 415, 1, 1987; Maggi et al., Naun. Schmied. Arch. Pharmacol., 332, 276, 1986; Maggi et al., J. Urol., 136, 696, 1986).

[2] = test system: cystometric parameters (bladder volume capacity, micturition pressure); experiment: Cystometric parameters (BVC, MP) in the conscious rat; format: in vivo, rats; details: for BVC before treatment / MP before treatment: baseline; for BVC before treatment / MP before treatment / BVC after treatment / MP after treatment: mean±S.E.; for BVC % change / MP % change / BVC after treatment / MP after treatment: 15 min after injection
Experimental: Male Sprague Dawley rats (Crl: CD° BR) weighing 250-350 g were used. The animals were housed with free access to food and water and maintained on a forced 12 h alternating light-dark cycle at 22-24°C for at least one week, except during performance of the experiment.
An approximately 10 mm long midline incision was made in the shaved and cleaned abdominal wall. The urinary bladder was gently freed from adhering tissues, emptied, and then cannulated, via an incision at the dome, with a polyethylene cannula (Portex PP30), which was permanently sutured with silk thread. The cannula was exteriorized through a subcutaneous tunnel in the retroscapular area, where it was connected with a plastic adapter to avoid the risk of removal by the animal. For intravenous (i.v.) injection of test compounds, a PE 50 polyethylene tubing filled with physiological saline was inserted into the jugular vein and exteriorized in the retroscapular area.
Since cystometrographic parameters have been reported to be influenced by the time elapsed after catheter implantation […].
On the day of the experiment, the rats were placed in Bollman's cages; after a stabilization period of 20 min, the free tip of the bladder catheter was connected through a T-shaped tube to a pressure transducer (Bentley T 800/Marb P 82) and to a peristaltic pump (Gilson minipuls 2) for a continuous infusion, at the constant rate of 0.1 ml/min, of saline solution into the urinary bladder. The intraluminal pressure signal during infusion was continuously recorded on a polygraph (Battaglia Rangoni KO 380 with ADC1/T amplifier). Two urodynamic parameters were evaluated: bladder volume capacity (BVC) and micturition pressure (MP). BVC (in ml) is defined as the minimum volume infused after which detrusor contraction (followed by micturition) occurs. MP (in mmHg) is defined as the maximal intravesical pressure induced by the contraction of detrusor during micturition. Basal BVC and MP values were calculated as the means of the first two recorded cystometrograms. At this point, the infusion was interrupted and the test compounds were administered. Fifteen minutes after intravenous administration, or one hour after oral drug administration, two additional cystometrograms were recorded in each animal and the mean values of the two cystometrographic parameters were calculated.
The statistical significance of the differences in urodynamic parameter values was evaluated by Student's t test for paired data. Only changes showing a probability P<0.01 were considered to be significant.

For `Cc1c(-c2ccccc2)oc2c(C(=O)OCCN3CCCCC3)cccc2c1=O` [Flavoxate, flavoxate], the “AMPLITUDE mm Hg before treatment” value ([1]; 300 µg/kg i.v. group) was 25.9±1.3 mm Hg, the “FREQUENCY No. contr./15 min before treatment” value ([1]; 300 µg/kg i.v. group) was 9.2±1.2 No. contr./15 min and the “AMPLITUDE mm Hg after treatment” value ([1]; 300 µg/kg i.v.) was 24.1±1.8 mm Hg. The “BLADDER CONTRACTIONS Disappearance time” value ([1]; 300 µg/kg i.v.) was 1.70 min, the “FREQUENCY No. contr./15 min after treatment” value ([1]; 300 µg/kg i.v.) was 8.8±1.7 No. contr./15 min and the “AMPLITUDE mm Hg before treatment” value ([1]; 1000 µg/kg i.v. group) was 26.1±2.3 mm Hg. The “FREQUENCY No. contr./15 min before treatment” value ([1]; 1000 µg/kg i.v. group) was 10.1±0.7 No. contr./15 min, the “AMPLITUDE mm Hg after treatment” value ([1]; 1000 µg/kg i.v.) was 25.0±2.2 mm Hg and the “BLADDER CONTRACTIONS Disappearance time” value ([1]; 1000 µg/kg i.v.) was 3.04 min. For the same compound, the “FREQUENCY No. contr./15 min after treatment” value ([1]; 1000 µg/kg i.v.) was 8.6±0.9 No. contr./15 min, the “AMPLITUDE mm Hg before treatment” value ([1]; 3000 µg/kg i.v. group) was 18.9±0.9 mm Hg and the “FREQUENCY No. contr./15 min before treatment” value ([1]; 3000 µg/kg i.v. group) was 10.7±0.7 No. contr./15 min. The “AMPLITUDE mm Hg after treatment” value ([1]; 3000 µg/kg i.v.) was 16.6±1.2 mm Hg, the “BLADDER CONTRACTIONS Disappearance time” value ([1]; 3000 µg/kg i.v.) was 5.30 min and the “FREQUENCY No. contr./15 min after treatment” value ([1]; 3000 µg/kg i.v.) was 6.5±0.7 No. contr./15 min. For the same compound, the “AMPLITUDE mm Hg before treatment” value ([1]; 10000 µg/kg i.v. group) was 19.9±1.6 mm Hg, the “FREQUENCY No. contr./15 min before treatment” value ([1]; 10000 µg/kg i.v. group) was 11.3±0.8 No. contr./15 min and the “AMPLITUDE mm Hg after treatment” value ([1]; 10000 µg/kg i.v.) was 19.2±1.5 mm Hg. The “BLADDER CONTRACTIONS Disappearance time” value ([1]; 10000 µg/kg i.v.) was 8.25 min, the “BLADDER CONTRACTIONS Disappearance time” value ([1]; 10000 µg/kg i.v., listed as flavoxate) was 8.25 ± 1.90 min and the “FREQUENCY No. contr./15 min after treatment” value ([1]; 10000 µg/kg i.v.) was 5.5±0.6 No. contr./15 min. It also gave an ED (10 min disappearance of contractions) ([1]; Rattus norvegicus, iv, 10 min, extrapolated dose inducing 10 min of disappearance of the contractions, linear regression) of over 10 mg/kg, an ED50 ([1]; Rattus norvegicus, iv, read-out: ED50 FREQUENCY (and 95% confidence limits), i.v., quantal criterion (change ≥30% relative to basal value)) of 2.65 mg/kg and a BVC before treatment ([2]; 300 µg/kg i.v. group) of 0.76 ± 0.11 mL. The MP before treatment ([2]; 300 µg/kg i.v. group) was 89.2±10.7 mmHg, the BVC % change ([2]; 300 µg/kg i.v.) was “+14%” and the MP % change ([2]; 300 µg/kg i.v.) was “+7%”. The BVC after treatment ([2]; 300 µg/kg i.v.) was 0.87 ± 0.11 mL, the MP after treatment ([2]; 300 µg/kg i.v.) was 95.0±10.9 mmHg and the BVC before treatment ([2]; 1000 µg/kg i.v. group) was 0.88 ± 0.15 mL. For the same compound, the MP before treatment ([2]; 1000 µg/kg i.v. group) was 90.4±10.7 mmHg, the BVC % change ([2]; 1000 µg/kg i.v.) was “+26%” and the MP % change ([2]; 1000 µg/kg i.v.) was -12%. The BVC after treatment ([2]; 1000 µg/kg i.v.) was 1.11 ± 0.16 mL, the MP after treatment ([2]; 1000 µg/kg i.v.) was 80.1±11.1 mmHg and the BVC before treatment ([2]; 3000 µg/kg i.v. group) was 0.77 ± 0.08 mL. The MP before treatment ([2]; 3000 µg/kg i.v. group) was 72.6±9.3 mmHg, the BVC % change ([2]; 3000 µg/kg i.v.) was “+39%” and the MP % change ([2]; 3000 µg/kg i.v.) was “+4%”. For the same compound, the BVC after treatment ([2]; 3000 µg/kg i.v.) was 1.07 ± 0.12 mL, the MP after treatment ([2]; 3000 µg/kg i.v.) was 75.2±9.5 mmHg and the “effect on MP (in words)” value ([2]; conscious rats, i.v., NAN-190 up to the highest administrable dose of 300 µg/kg) was “inactive”.
